Test results reported in PubChem BioAssay AID651592 (Sanford-Burnham Center for Chemical Genomics, 2012).

What was measured:
[1] = system: IL8; assay: inhibitors of NFkB activation in CF airway cells, SAR follow-up, KKLEB cells, panel, IL8 HTRF, NFkB-GFP (AID 651592); settings: PAF/TNFa-induced NFkB-GFP / IL8 HTRF, mean of runs, mean IC50 across panel replicates;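 also: immortalized cystic fibrosis airway epithelial KKLEB cells with an NF-kB GFP reporter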
[2] = as above; settings: PAF/TNFa-induced NFkB-GFP / IL8 HTRF, CF-PAF assay
[3] = target: Interleukin-8 (Homo sapiens) (UniProt P10145); assay: as above; settings: PAF/TNFa-induced NFkB-GFP / IL8 HTRF
[4] = mean of runs, mean IC50 across panel replicates

Sequence of Interleukin-8 (Homo sapiens) (P10145 whole entry, looked up): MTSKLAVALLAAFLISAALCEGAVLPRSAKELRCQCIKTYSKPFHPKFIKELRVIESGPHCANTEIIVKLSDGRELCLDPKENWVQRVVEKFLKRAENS

Compound | IC50 ([1]; PAF-induced) | IC50 ([1]; TNFa-induced) | IC50 [2, 4] | IC50 ([2]; run 1) | IC50 ([2]; run 2) | IC50 ([2]; run 3) | IC50 ([2]; run 4) | IC50 ([2]; run 5) | IC50 ([2]; run 6) | IC50 ([3]; IL8, PAF-induced, run 1) | IC50 ([3]; IL8, PAF-induced, run 2) | IC50 ([3]; IL8, PAF-induced, run 3) | IC50 ([3]; IL8, PAF-induced, run 4) | IC50 ([3]; IL8, PAF-induced, run 5) | IC50 ([3]; IL8, PAF-induced, run 6) | IC50 ([3]; IL8, TNFa-induced, run 1) | IC50 ([3]; IL8, TNFa-induced, run 2) | IC50 ([3]; IL8, TNFa-induced, run 3) | IC50 ([3]; IL8, TNFa-induced, run 4) | IC50 ([3]; IL8, TNFa-induced, run 5) | further results
Cc1ccc(NCc2cc3c(C(C)(C)C)nn(-c4ccccc4)c3[nH]c2=O)cc1 | 4.49 µM | > 66 µM | 39.7 µM | > 66 µM | 26 µM | 43.2 µM | > 66 µM | 13.4 µM | 23.8 µM | 2.68 µM | 3.24 µM | 3.47 µM | 3.84 µM | 5.83 µM | 7.9 µM | > 66 µM | > 66 µM | > 66 µM | > 66 µM | > 66 µM | IC50 ([3]; IL8, TNFa-induced, run 6): > 66 µM
O=C(Nc1ccc(N2CCN(C(=O)c3ccccc3F)CC2)cc1)c1ccncc1 | 55.8 µM | > 66 µM | 31.8 µM | 15.6 µM | 16.3 µM | 17.9 µM | > 66 µM | > 66 µM | 8.71 µM | > 66 µM | > 66 µM | 55.8 µM | > 66 µM | > 66 µM | > 66 µM | > 66 µM | > 66 µM | > 66 µM | > 66 µM | > 66 µM | IC50 ([3]; IL8, TNFa-induced, run 6): > 66 µM
CCOc1ccc(NCc2cc3c(C(C)(C)C)nn(-c4ccc(Cl)cc4)c3[nH]c2=O)cc1 | 0.228 µM | > 66 µM | 17.9 µM | 9.61 µM | 10.1 µM | 10.2 µM | > 66 µM | 0.52 µM | 10.8 µM | 0.216 µM | 0.248 µM | 0.277 µM | 0.149 µM | 0.236 µM | 0.246 µM | > 66 µM | > 66 µM | > 66 µM | > 66 µM | > 66 µM | IC50 ([3]; IL8, TNFa-induced, run 6): > 66 µM
CCOc1ccc(NCc2cc3c(-c4ccc(OC)c(OC)c4)nn(-c4ccccc4)c3[nH]c2=O)cc1 | 1.62 µM | > 66 µM | 25.2 µM | 18.7 µM | 44.7 µM | 48 µM | 10.4 µM | 12.9 µM | 16.3 µM | 1.25 µM | 1.71 µM | 1.85 µM | 1.33 µM | 1.66 µM | 1.89 µM | > 66 µM | > 66 µM | > 66 µM | > 66 µM | > 66 µM | IC50 ([3]; IL8, TNFa-induced, run 6): > 66 µM
O=C(Nc1ccc(N2CCN(C(=O)c3ccc(F)cc3)CC2)cc1)c1cncc(Br)c1 | 9.52 µM | 50 µM | 3.01 µM | 2.5 µM | 3.02 µM | 3.34 µM | 2.31 µM | 3.07 µM | 3.82 µM | 8.79 µM | 9.88 µM | 24.9 µM | 2.03 µM | 3.53 µM | 7.95 µM | > 66 µM | > 66 µM | > 66 µM | > 66 µM | 10.3 µM | IC50 ([3]; IL8, TNFa-induced, run 6): 25.4 µM
CCOc1ccc(NCc2cc3c(C)nn(-c4ccccc4)c3[nH]c2=O)cc1 | 10.5 µM | > 66 µM | 12.6 µM | 13 µM | 15.9 µM | 16.2 µM | 9.13 µM | 10.5 µM | 11.2 µM | 10.3 µM | 13.9 µM | 14.1 µM | 7.93 µM | 8.32 µM | 8.5 µM | > 66 µM | > 66 µM | > 66 µM | > 66 µM | > 66 µM | IC50 ([3]; IL8, TNFa-induced, run 6): > 66 µM
CCOc1ccc(NCc2cc3c(-c4ccc(F)cc4)nn(-c4ccccc4)c3[nH]c2=O)cc1 | 0.522 µM | 57.5 µM | 9.11 µM | 14.2 µM | 15.7 µM | 18.1 µM | 1.81 µM | 2.36 µM | 2.48 µM | 0.434 µM | 0.974 µM | 1.05 µM | 0.181 µM | 0.244 µM | 0.248 µM | > 66 µM | > 66 µM | > 66 µM | > 66 µM | > 66 µM | IC50 ([3]; IL8, TNFa-induced, run 6): 14.8 µM
O=C(Nc1ccc(N2CCN(C(=O)c3ccccc3)CC2)cc1)c1cccnc1 | 40.3 µM | > 66 µM | 42.9 µM | 17 µM | 20.7 µM | 21.9 µM | > 66 µM | > 66 µM | > 66 µM | > 66 µM | > 66 µM | 7.51 µM | > 66 µM | > 66 µM | 36.4 µM | > 66 µM | > 66 µM | > 66 µM | > 66 µM | > 66 µM | IC50 ([3]; IL8, TNFa-induced, run 6): > 66 µM
O=C(Nc1ccc(N2CCN(C(=O)c3ccc(F)cc3)CC2)cc1)c1cc(Br)cc(Br)c1 | > 66 µM | > 66 µM | > 66 µM | > 66 µM | > 66 µM | > 66 µM | > 66 µM | > 66 µM | > 66 µM | > 66 µM | > 66 µM | > 66 µM | > 66 µM | > 66 µM | > 66 µM | > 66 µM | > 66 µM | > 66 µM | > 66 µM | > 66 µM | IC50 ([3]; IL8, TNFa-induced, run 6): > 66 µM

Now from value to compound, other results behind:

IC50 ([1]; PAF-induced) | IC50 ([1]; TNFa-induced) | IC50 [2, 4] | IC50 ([2]; run 1) | IC50 ([2]; run 2) | IC50 ([2]; run 3) | IC50 ([2]; run 4) | IC50 ([2]; run 5) | IC50 ([2]; run 6) | IC50 ([3]; IL8, PAF-induced, run 1) | IC50 ([3]; IL8, PAF-induced, run 2) | IC50 ([3]; IL8, PAF-induced, run 3) | IC50 ([3]; IL8, PAF-induced, run 4) | IC50 ([3]; IL8, PAF-induced, run 5) | IC50 ([3]; IL8, PAF-induced, run 6) | IC50 ([3]; IL8, TNFa-induced, run 1) | IC50 ([3]; IL8, TNFa-induced, run 2) | IC50 ([3]; IL8, TNFa-induced, run 3) | IC50 ([3]; IL8, TNFa-induced, run 4) | IC50 ([3]; IL8, TNFa-induced, run 5) | Compound | further results
> 66 µM | 56 µM | 42.6 µM | 18.1 µM | 18.3 µM | 21.5 µM | > 66 µM | > 66 µM | > 66 µM | > 66 µM | > 66 µM | > 66 µM | > 66 µM | > 66 µM | > 66 µM | > 66 µM | > 66 µM | > 66 µM | > 66 µM | > 66 µM | O=C(Nc1ccc(N2CCN(C(=O)c3ccccc3F)CC2)cc1)c1cccc(Br)c1 | IC50 ([3]; IL8, TNFa-induced, run 6): 6.25 µM
> 66 µM | > 66 µM | 43.9 µM | 21.5 µM | 21.6 µM | 22.5 µM | > 66 µM | > 66 µM | > 66 µM | > 66 µM | > 66 µM | > 66 µM | > 66 µM | > 66 µM | > 66 µM | > 66 µM | > 66 µM | > 66 µM | > 66 µM | > 66 µM | O=C(Nc1ccc(N2CCN(C(=O)c3ccc(F)cc3)CC2)cc1)c1cccc(Br)c1 | IC50 ([3]; IL8, TNFa-induced, run 6): > 66 µM
61.3 µM | > 66 µM | 29 µM | 6.4 µM | 8.28 µM | 8.83 µM | > 66 µM | > 66 µM | 18.3 µM | > 66 µM | > 66 µM | > 66 µM | > 66 µM | > 66 µM | 37.8 µM | > 66 µM | > 66 µM | > 66 µM | > 66 µM | > 66 µM | O=C(Nc1ccc(N2CCN(C(=O)c3ccccc3F)CC2)cc1)c1cccnc1 | IC50 ([3]; IL8, TNFa-induced, run 6): > 66 µM
> 66 µM | > 66 µM | > 66 µM | > 66 µM | > 66 µM | > 66 µM | > 66 µM | > 66 µM | > 66 µM | > 66 µM | > 66 µM | > 66 µM | > 66 µM | > 66 µM | > 66 µM | > 66 µM | > 66 µM | > 66 µM | > 66 µM | > 66 µM | O=C(Nc1ccc(N2CCN(C(=O)c3ccccc3F)CC2)cc1)c1cc(Br)cc(Br)c1 | IC50 ([3]; IL8, TNFa-induced, run 6): > 66 µM
55 µM | > 66 µM | 39.8 µM | > 66 µM | 16.8 µM | 24.3 µM | > 66 µM | > 66 µM | > 66 µM | > 66 µM | > 66 µM | > 66 µM | > 66 µM | > 66 µM | > 66 µM | > 66 µM | > 66 µM | > 66 µM | > 66 µM | > 66 µM | O=C(Nc1ccc(N2CCN(C(=O)c3ccccc3Cl)CC2)cc1)c1cccc(Br)c1 | IC50 ([3]; IL8, TNFa-induced, run 6): > 66 µM
